Test results from ChEMBL document CHEMBL5214954, “Identification of PI3K/HDAC Dual-targeted inhibitors with subtype selectivity as potential therapeutic agents against solid Tumors: Building HDAC6 potency in a Quinazolinone-based PI3Kδ-selective template” (Bioorg Med Chem, 2022).

How the values were obtained:
SU-DHL-6 = experiment: Antiproliferative activity against human SU-DHL-6 cells incubated for 72 hrs by CCK-8 assay; type: functional, cell-based; conditions: SU-DHL-6, 72 h
[1] = Cytotoxicity against HUVEC cells incubated for 72 hrs by CCK-8 assay; conditions: human
KM12 = experiment: Antiproliferative activity against human KM12 cells incubated for 72 hrs by CCK-8 assay; type: functional, cell-based; conditions: KM12, 72 h
HCT-116 = experiment: Antiproliferative activity against human HCT-116 cells incubated for 72 hrs by CCK-8 assay; type: functional, cell-based; conditions: HCT-116, 72 h
T47D = experiment: Antiproliferative activity against human T47D cells incubated for 72 hrs by CCK-8 assay; type: functional, cell-based
[2] = biological target: T1, Protein deacetylase HDAC6 (Homo sapiens, UniProt Q9UBN7)
T1 sequence (Q9UBN7 whole entry): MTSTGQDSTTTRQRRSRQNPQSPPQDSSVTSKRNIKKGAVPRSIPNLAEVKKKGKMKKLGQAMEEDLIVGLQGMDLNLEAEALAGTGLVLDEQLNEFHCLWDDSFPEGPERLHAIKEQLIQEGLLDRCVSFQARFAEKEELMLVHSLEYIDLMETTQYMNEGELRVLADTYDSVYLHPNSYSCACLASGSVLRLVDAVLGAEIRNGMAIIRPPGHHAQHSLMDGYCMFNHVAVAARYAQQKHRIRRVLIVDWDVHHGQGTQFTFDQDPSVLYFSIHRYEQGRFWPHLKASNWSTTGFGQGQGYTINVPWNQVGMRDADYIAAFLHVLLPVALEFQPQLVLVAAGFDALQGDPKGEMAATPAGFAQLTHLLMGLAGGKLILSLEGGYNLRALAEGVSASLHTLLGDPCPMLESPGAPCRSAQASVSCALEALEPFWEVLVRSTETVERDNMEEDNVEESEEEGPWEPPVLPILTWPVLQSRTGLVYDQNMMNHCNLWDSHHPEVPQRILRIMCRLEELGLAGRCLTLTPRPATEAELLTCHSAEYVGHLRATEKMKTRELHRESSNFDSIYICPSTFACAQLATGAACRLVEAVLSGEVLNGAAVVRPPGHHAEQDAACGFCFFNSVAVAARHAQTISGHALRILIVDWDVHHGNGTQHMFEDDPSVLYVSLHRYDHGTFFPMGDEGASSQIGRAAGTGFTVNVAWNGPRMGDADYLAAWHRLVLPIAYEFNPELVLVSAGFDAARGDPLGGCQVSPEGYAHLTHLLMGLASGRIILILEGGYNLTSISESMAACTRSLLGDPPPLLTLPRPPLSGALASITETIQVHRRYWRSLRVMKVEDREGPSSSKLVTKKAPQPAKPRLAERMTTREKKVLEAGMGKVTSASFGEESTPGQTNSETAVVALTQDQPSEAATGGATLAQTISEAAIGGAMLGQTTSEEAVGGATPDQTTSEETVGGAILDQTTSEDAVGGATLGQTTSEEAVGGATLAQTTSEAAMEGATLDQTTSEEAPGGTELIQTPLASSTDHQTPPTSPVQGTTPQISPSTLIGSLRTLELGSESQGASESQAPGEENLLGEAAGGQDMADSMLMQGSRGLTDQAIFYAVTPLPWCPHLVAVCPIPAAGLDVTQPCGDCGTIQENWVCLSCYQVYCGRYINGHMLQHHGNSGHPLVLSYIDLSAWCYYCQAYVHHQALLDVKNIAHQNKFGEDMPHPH
Description: Inhibition of HDAC6 (unknown origin) measured by fluorescence based assay

[3] = biological target: T2, Phosphatidylinositol 4,5-bisphosphate 3-kinase catalytic subunit delta isoform (Homo sapiens, UniProt O00329); experiment: Inhibition of PI3Kdelta (unknown origin) measured by ADP-Glo assay
T2 sequence (O00329 whole entry): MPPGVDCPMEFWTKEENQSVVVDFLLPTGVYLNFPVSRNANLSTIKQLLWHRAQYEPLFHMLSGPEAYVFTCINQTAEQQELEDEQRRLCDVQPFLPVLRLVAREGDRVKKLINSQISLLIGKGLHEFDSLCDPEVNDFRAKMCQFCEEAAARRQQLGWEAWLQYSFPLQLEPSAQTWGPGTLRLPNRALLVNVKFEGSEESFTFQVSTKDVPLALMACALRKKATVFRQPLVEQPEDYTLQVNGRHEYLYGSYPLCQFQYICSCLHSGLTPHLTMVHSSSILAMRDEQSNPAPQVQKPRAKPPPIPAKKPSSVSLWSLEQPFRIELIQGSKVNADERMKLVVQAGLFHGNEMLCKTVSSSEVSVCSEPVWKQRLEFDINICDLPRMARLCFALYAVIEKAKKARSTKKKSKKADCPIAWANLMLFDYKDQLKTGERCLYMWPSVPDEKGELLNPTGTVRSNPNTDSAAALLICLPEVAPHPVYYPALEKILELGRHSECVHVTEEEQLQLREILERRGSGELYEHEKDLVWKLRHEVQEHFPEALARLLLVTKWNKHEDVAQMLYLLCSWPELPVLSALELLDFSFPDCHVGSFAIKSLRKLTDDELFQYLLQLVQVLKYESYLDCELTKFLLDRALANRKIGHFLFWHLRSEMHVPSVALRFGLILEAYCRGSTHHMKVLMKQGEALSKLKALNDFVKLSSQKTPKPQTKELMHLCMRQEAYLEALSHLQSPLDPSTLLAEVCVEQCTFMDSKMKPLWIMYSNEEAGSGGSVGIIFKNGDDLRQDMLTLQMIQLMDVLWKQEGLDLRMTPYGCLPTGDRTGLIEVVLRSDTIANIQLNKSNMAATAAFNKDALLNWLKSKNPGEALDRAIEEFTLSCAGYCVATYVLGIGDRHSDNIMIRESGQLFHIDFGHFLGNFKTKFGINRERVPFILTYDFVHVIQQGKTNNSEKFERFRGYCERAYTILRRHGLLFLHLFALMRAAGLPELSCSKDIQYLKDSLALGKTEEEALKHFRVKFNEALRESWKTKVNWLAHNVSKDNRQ

Histone deacetylase 1 = Histone deacetylase 1 (Homo sapiens, UniProt Q13547)
Histone deacetylase 1, sequence (Q13547 whole entry): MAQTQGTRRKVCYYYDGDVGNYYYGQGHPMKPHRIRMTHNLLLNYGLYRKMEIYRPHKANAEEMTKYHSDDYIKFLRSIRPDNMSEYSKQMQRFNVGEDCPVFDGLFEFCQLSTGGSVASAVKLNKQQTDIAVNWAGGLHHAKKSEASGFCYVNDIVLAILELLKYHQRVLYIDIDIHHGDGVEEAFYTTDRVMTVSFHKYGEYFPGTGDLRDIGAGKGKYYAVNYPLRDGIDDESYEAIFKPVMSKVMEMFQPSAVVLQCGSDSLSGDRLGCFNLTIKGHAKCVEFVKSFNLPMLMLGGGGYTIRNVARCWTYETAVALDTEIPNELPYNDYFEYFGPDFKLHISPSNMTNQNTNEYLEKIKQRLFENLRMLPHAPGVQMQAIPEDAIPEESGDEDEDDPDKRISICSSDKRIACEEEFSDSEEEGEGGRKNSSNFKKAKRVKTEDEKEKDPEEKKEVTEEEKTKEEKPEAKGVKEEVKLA
Description: Inhibition of HDAC1 (unknown origin) measured by fluorescence based assay

SMILES | IC50 [2] [nM] | IC50 [3] [nM] | IC50 (Histone deacetylase 1) [nM] | other results
O=C(CCCCCCNC(=O)c1cnc(N(c2ccccc2)c2ccccc2)nc1)NO [RICOLINOSTAT] | – | – | – | IC50 (SU-DHL-6): 830 nM; IC50 at 72 h [1]: 13600 nM; IC50 (KM12): 2150 nM; IC50 (HCT-116): 1850 nM; IC50 (T47D): 710 nM
CC[C@H](Nc1ncnc2[nH]cnc12)c1nc2cccc(F)c2c(=O)n1CCCCCC(=O)NO | 121 | 36 | 85 | –
N#Cc1c(N)nc(N)nc1N1CCC[C@H]1c1nc(NCc2ccc(C(=O)NO)cc2)c2c(Cl)cccc2n1 | 267 | – | – | –
N#Cc1c(N)nc(N)nc1N1CC2(CC2)C[C@H]1c1nc2cccc(Cl)c2c(=O)n1Cc1cc(C(=O)NO)no1 | 604 | 6.9 | – | –
N#Cc1c(N)nc(N)nc1N1C[C@@H](OC(=O)NCc2ccc(C(=O)NO)cc2)C[C@H]1c1nc2cccc(Cl)c2c(=O)n1-c1ccccc1 | 168 | 6.8 | – | –
N#Cc1c(N)nc(N)nc1N1CC2(CC2)C[C@H]1c1nc(NCCc2ccc(C(=O)NO)cc2)c2c(Cl)cccc2n1 | 219 | – | – | –
N#Cc1c(N)nc(N)nc1N1C[C@H](OC(=O)NCc2ccc(C(=O)NO)cc2)C[C@H]1c1nc2cccc(F)c2c(=O)n1-c1ccccc1 | – | 24 | – | –
N#Cc1c(N)nc(N)nc1N1CC2(CC2)C[C@H]1c1nc2cccc(Cl)c2c(=O)n1Cc1ccc(C(=O)NO)cc1 | 331 | 6.1 | – | –
N#Cc1c(N)nc(N)nc1N1CC2(CC2)C[C@H]1c1nc(NCc2ccc(C(=O)NO)cc2)c2c(Cl)cccc2n1 | 398 | – | – | –
N#Cc1c(N)nc(N)nc1N1CCC[C@H]1c1nc2cccc(Cl)c2c(=O)n1Cc1ccc(C(=O)NO)cc1 | 280 | – | – | –
CC[C@H](Nc1ncnc2[nH]cnc12)c1nc2cccc(F)c2c(=O)n1-c1ccccc1 [IDELALISIB] | – | – | – | IC50 (SU-DHL-6): 53 nM; IC50 at 72 h [1]: 38200 nM; IC50 (KM12): 960 nM; IC50 (HCT-116): 2960 nM; IC50 (T47D): 510 nM

Further lines, with some results ahead:

IC50 [2] [nM] | IC50 [3] [nM] | IC50 (Histone deacetylase 1) [nM] | SMILES | other results
32 | 20 | 82 | N#Cc1c(N)nc(N)nc1N1CC2(CC2)C[C@H]1c1nc2cccc(F)c2c(=O)n1Cc1ccc(C(=O)NO)s1 | –
45 | 99 | 244 | CC[C@H](Nc1ncnc2[nH]cnc12)c1nc2cccc(F)c2c(=O)n1Cc1ccc(C(=O)NO)cc1 | –
27 | 18 | 102 | Cn1c([C@@H]2C[C@@H](OC(=O)NCc3ccc(C(=O)NO)cc3)CN2c2nc(N)nc(N)c2C#N)nc2cccc(Cl)c2c1=O | –
13 | 42 | 88 | Cn1c([C@@H]2C[C@@H](OCc3ccc(C(=O)NO)s3)CN2c2nc(N)nc(N)c2C#N)nc2cccc(Cl)c2c1=O | –
66 | – | 214 | C[C@H](Nc1nc(N)nc(N)c1C#N)c1nc2cccc(Cl)c2c(=O)n1Cc1ccc(C(=O)NO)s1 | –
67 | – | 111 | N#Cc1c(N)nc(N)nc1N1CCC[C@H]1c1nc2cccc(Cl)c2c(=O)n1Cc1ccc(C(=O)NO)s1 | –
28 | 136 | 360 | O=C(NO)c1ccc(Cn2c([C@@H]3CC4(CC4)CN3c3ncnc4[nH]cnc34)nc3cccc(F)c3c2=O)cc1 | –
27 | 33 | 287 | N#Cc1c(N)nc(N)nc1N1CC2(CC2)C[C@H]1c1nc2cccc(F)c2c(=O)n1Cc1ccc(C(=O)NO)cc1 | –
11 | 42 | 260 | CN(Cc1ccc(C(=O)NO)cc1)C(=O)O[C@@H]1C[C@@H](c2nc3cccc(Cl)c3c(=O)n2C)N(c2nc(N)nc(N)c2C#N)C1 | –
36 | 22 | 288 | Cn1c([C@@H]2C[C@@H](OC(=O)NCCc3ccc(C(=O)NO)cc3)CN2c2nc(N)nc(N)c2C#N)nc2cccc(Cl)c2c1=O | –
43 | 16 | 182 | Cn1c([C@@H]2C[C@@H](OC(=O)NCc3ccc(C(=O)NO)s3)CN2c2nc(N)nc(N)c2C#N)nc2cccc(Cl)c2c1=O | –
45 | – | 198 | CC[C@H](Nc1nc(N)nc(N)c1C#N)c1nc2cccc(Cl)c2c(=O)n1Cc1ccc(C(=O)NO)s1 | –
13 | 75 | 72 | Cn1c([C@@H]2C[C@@H](OCc3ccc(C(=O)NO)cc3)CN2c2nc(N)nc(N)c2C#N)nc2cccc(Cl)c2c1=O | –
87 | 1.6 | 271 | N#Cc1c(N)nc(N)nc1N1C[C@H](OC(=O)NCc2ccc(C(=O)NO)cc2)C[C@H]1c1nc2cccc(Cl)c2c(=O)n1-c1ccccc1 | –
